Source: patent publication US20240009272A1, “METHODS, SYSTEMS, AND COMPOSITIONS FOR LEGUME-BASED PRODUCTION OF THERAPEUTIC PROTEINS AND THERAPEUTIC MEDICAL MATERIALS” (Arizona Board of Regents on Behalf of The University of …, priority 2017, published 2024)

Assay: Stability of rhEGF in soymilk, read out by bioactivity on Hela cell EGFR
Format: physicochemical
Details: in soymilk over 24 hours; Hela cell EGFR abundance
Experimental: Hela cells (obtained from American Tissue Culture Collection) were cultured in Minimum Essential Media (MEM) complemented with 10% Fetal Bovine Serum (FBS), 100 units/ml penicillin, and 100 μg/ml streptomycin. For the western blotting assay, cells grown in a 6-well plate were kept in serum-free MEM media for 24 hours. Cells were then either kept in a serum-free medium (control) or stimulated with soy milk alone, soy EGF, or commercial recombinant human EGF for different time periods as indicated. Cells were lysed by directly adding 1×SDS sample buffer (50 mM Tris-HCl, pH 6.8, 10% glycerol, 2% SDS, and 5% β-ME) to the cells after washing 3 times with 1×PBS. EGF bio-activity was determined via EGFR phosphorylation and downstream AKT phosphorylation. Total EGFR was also measured since EGFR is known to undergo internalization when stimulated with EGF. Antibodies used in western blot are anti-p-EGFR (Tyr1068) (#2234, Cell Signaling Technology), anti-total EGFR (#06-847, Millipore), anti-p-AKT (#4060, Cell Signaling Technology) and anti-Lamin B1 (#13435, Cell Signaling Technology). […] EGFR was labeled using an anti-EGFR antibody (#4267, Cell Signaling Technology) and detected with Alexa Fluor 594 Goat anti-rabbit IgG (#A11012, Life Technologies). […]

Substance: rhEGF: commercial recombinant human EGF (Gibco, Life Technologies), used as positive control
- bioactivity of rhEGF kept in soymilk versus control rhEGF: same bioactivity as control recombinant rhEGF
